Experimental data taken from US8735406B2, “8-oxodihydropurine derivative” (Dainippon Sumitomo Pharma Co., Ltd., priority 2009, dated 2014).
Counter-ions that a name gives are not always drawn. Like-named read-outs stand apart in the source and are kept apart here.

Biological target: T1, FAAH (Rattus norvegicus, UniProt P97612)
T1 construct: Preparation of Rat Brain Membranes Preparations (FAAH Enzyme Solution); from tissue; host or cells: rat cerebrum (brain membrane preparation)
T1 sequence (P97612 1-579): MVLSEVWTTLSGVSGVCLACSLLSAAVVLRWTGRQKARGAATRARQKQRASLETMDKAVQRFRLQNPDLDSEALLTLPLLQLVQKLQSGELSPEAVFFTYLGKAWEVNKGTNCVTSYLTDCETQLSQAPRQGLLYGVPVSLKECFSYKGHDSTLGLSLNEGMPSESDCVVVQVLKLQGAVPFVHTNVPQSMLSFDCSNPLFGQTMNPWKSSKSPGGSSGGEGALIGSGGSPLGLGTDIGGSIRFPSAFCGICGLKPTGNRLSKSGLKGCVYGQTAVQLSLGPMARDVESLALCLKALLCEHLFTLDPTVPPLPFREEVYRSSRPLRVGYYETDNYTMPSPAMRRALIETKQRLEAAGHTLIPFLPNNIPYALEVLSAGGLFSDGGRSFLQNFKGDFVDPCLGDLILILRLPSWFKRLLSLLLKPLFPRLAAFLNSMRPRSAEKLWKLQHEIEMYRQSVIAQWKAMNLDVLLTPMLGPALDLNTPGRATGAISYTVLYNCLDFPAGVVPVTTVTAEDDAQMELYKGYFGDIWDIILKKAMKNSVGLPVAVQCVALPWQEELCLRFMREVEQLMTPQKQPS
Experiment: Determination of FAAH inhibitory activity in rat (rat brain membrane preparations, [3H]-anandamide hydrolysis)
Type: biochemical
Conditions: rat brain membrane preparations; for IC50: read-out: FAAH Inhibition IC50
Protocol: Determination of FAAH Inhibitory Activity in Rat
The preparation of rat brain membranes preparations and the determination of FAAH inhibitory activity were carried out according to the Jonsson et al. method [Br. J. Pharmacol., 133, 1263 (2001)].
(1) Preparation of Rat Brain Membranes Preparations (FAAH Enzyme Solution)
The cerebrum was extracted from rats and was freeze-stored at −80° C. To the frozen cerebrum was added 4° C. enzyme homogenization buffer (20 mM HEPES-buffer pH 7.0, 1 mM MgCl2) and the mixture was homogenized using a homogenizer in ice and the homogenates were centrifuged (36,000×g for 20 minutes). After repeating operations of homogenization and centrifugation, the tissue pellets were re-suspended with 4° C. enzyme homogenization buffer. The re-suspensions were incubated at 37° C. for 15 minutes and were centrifuged (36,000×g for 20 minutes), and the resulting tissue membranes were then re-suspended with enzyme solution preparation buffer (50 mM Tris-HCl buffer pH 7.4, 1 mM EDTA, 3 mM MgCl2). The protein concentration in the resulting membrane preparations were determined according to a colorimetry method (BCA Protein Assay: Pierce Inc.) and the preparations were freeze-stored at −80° C. until used for assay.
(2) Screening of Substances for Inhibiting FAAH Activity
To the above membrane preparations (final concentration 100 μg/mL) were added a solution of test substances in DMSO (final concentration in DMSO 1%) and an assay buffer (for final preparation; 22 mM Tris-HCl (pH 7.6), 1.4 mM EDTA, 1.5% BSA, 0.6 mM MgCl2) and the resulting mixtures were preincubated at 37° C. for 10 minutes. Thereto was added a substrate solution (for final preparation; 2 nM [^3H]-Anandamide (American Radiolabeled Chemicals Inc.)+2 μM Anandamide (Sigma-Aldrich Co.)) (final assay volume of 200 μL) and the resulting mixtures were incubated at 37° C. for 10 minutes. Here in control experiment, DMSO was added instead of the solution of test substance in DMSO. Also in blank experiment, DMSO was added instead of the solution of test substance in DMSO and an enzyme solution preparation buffer was also added instead of the membrane preparations. After the incubation, thereto was added a 400 μL ice-cooled solution of chloroform and methanol (1:1 ratio by volume) and the resulting mixtures were stirred. An ethanolamine (ethanolamine-1-[^3H]) as a decomposed product was separated into an upper layer (water/methanol layer) by centrifugation (1,000×g for 10 minutes). The upper layer 200 μL was transferred into 96 well Deepwell Luma Plate-96 (PerkinElmer Inc.) and the radioactivity was measured by microplate scintillation counter (TopCount NXT™: […].). The substances showing a lower measured value compared to those of control were selected as the compound having a FAAH inhibitory activity.
(3) Determination of IC50 Value
The test substances were prepared such that the final concentration of the compounds is within the range of 0.1 nM to 1 μM and were then examined on the effect on FAAH activity according to the above-mentioned protocol.

[1] = 100 nM test substance, read-out: FAAH Inhibition, Inhibition Rate at 100 nM
[2] = at 100 nM, read-out: FAAH Inhibition Inhibition Rate at 100 nM

SMILES	inhibition at 0.1 µM [1]	IC50 (test substance 0.1 nM to 1 μM)	inhibition at 0.1 µM [2]	IC50	FAAH Inhibition, Inhibition Rate at 100 nM (100 nM test substance, 0.1 µM)
CCCN(C)C(=O)n1c(=O)n(C)c2nc(-c3cccc(OC)c3)ncc21 [Example 107, 2-(3-Methoxyphenyl)-N,9-dimethyl-8-oxo-N-propyl-8,9-dihydro-7H-purine-7-carboxamide]	101%	0.007 µM	–	–	–
CCc1ncc2c(n1)n(C(=O)N1CC(c3cccc(F)c3)C1)c(=O)n2C [Example 635]	–	–	88%	0.044 µM	–
CN(C)C(=O)n1c(=O)n(C)c2cnc(COc3cccc(OC(F)F)c3)nc21 [Example 431]	60%	0.094 µM	–	–	–
O=C(N1CCCC1)n1c(=O)n(Cc2ccccc2)c2nc(-c3ccccc3)ncc21 [Example 308]	66%	0.074 µM	–	–	–
COCc1ncc2c(n1)n(C)c(=O)n2C(=O)N1CC(c2ccccc2C)C1 [compound 442]	54%	0.074 µM	–	–	–
Cn1c(=O)n(C(=O)N2CCCC2)c2cnc(-c3ccncc3)nc21 [Example 213, 9-Methyl-2-(pyridin-4-yl)-7-(pyrrolidin-1-ylcarbonyl)-7,9-dihydro-8H-purine-8-one]	100%	0.005 µM	–	–	–
COc1cccc(-c2ncc3c(n2)n(C)c(=O)n3C(=O)N(C)C)c1 [Example 48, 2-(3-Methoxyphenyl)-N,N,9-trimethyl-8-oxo-8,9-dihydro-7H-purine-7-carboxamide]	100%	0.004 µM	–	–	–
Cn1c(=O)n(C(=O)N2CCC2)c2cnc(COc3ccccc3)nc21 [compound 403]	93%	0.02 µM	–	–	–
Cn1c(=O)n(C(=O)N2CCC2)c2nc(COc3ccc(C(F)(F)F)cc3)ncc21 [Example 434]	95%	0.008 µM	–	–	–
CN(C)C(=O)n1c(=O)n(C)c2cnc(CCc3cc(F)cc(F)c3)nc21 [Example 497, 2-[2-(3,5-Difluorophenyl)ethyl]-N,N,7-trimethyl-8-oxo-7,8-dihydro-9H-purine-9-carboxamide]	–	0.025 µM	–	–	94%
Cn1c(=O)n(C(=O)N2CCC2)c2cnc(COc3ccc(Cl)cc3)nc21 [compound 406]	54%	0.1 µM	–	–	–
COCc1ncc2c(n1)n(C)c(=O)n2C(=O)N1CC(c2ccccc2OC)C1 [compound 457]	96%	0.01 µM	–	–	–
Cn1c(=O)n(C(=O)N2CCCC2)c2nc(Cc3ccccc3)ncc21 [compound 285]	66%	0.077 µM	–	–	–
Cn1c(=O)n(C(=O)N2CCCC2)c2nc(CCc3ccccc3)ncc21 [Example 290, 7-Methyl-2-(2-phenylethyl)-9-(pyrrolidin-1-ylcarbonyl)-7,9-dihydro-8H-purine-8-one]	93%	0.047 µM	–	–	–
COc1cccc(-c2ncc3c(n2)n(C)c(=O)n3C(=O)N(C)CCOc2ccccc2)c1 [Example 65, 2-(3-Methoxyphenyl)-N,9-dimethyl-8-oxo-N-(2-phenoxyethyl)-8,9-dihydro-7H-purine-7-carboxamide]	98%	0.003 µM	–	–	–
CN(C)C(=O)n1c(=O)n(C)c2cnc(COc3cccc(OC(F)(F)F)c3)nc21 [Example 423]	112%	0.003 µM	–	–	–
CCCc1ncc2c(n1)n(C)c(=O)n2C(=O)N1CC(c2cccc(F)c2)C1 [compound 625]	–	–	104%	0.007 µM	–
CN(C)C(=O)n1c(=O)n(C)c2cnc(-c3cccc(C(F)F)c3)nc21 [Example 332, 2-[3-(Difluoromethyl)phenyl]-N,N,7-trimethyl-8-oxo-7,8-dihydro-9H-purine-9-carboxamide]	78%	0.038 µM	–	–	–
CCN(C)C(=O)n1c(=O)n(C)c2cnc(-c3cccc(OC(F)F)c3)nc21 [compound 343]	95%	0.014 µM	–	–	–
CN(C)C(=O)n1c(=O)n(C)c2cnc(CCOc3ccc(C(F)(F)F)cc3)nc21 [Example 638, N,N,7-trimethyl-8-oxo-2-{2-[4-(trifluoromethyl)phenoxy]ethyl}-7,8-dihydro-9H-purine-9-carboxamide hydrochloric acid salt]	–	–	95%	0.012 µM	–
